Assay results reported in the NIST ThermoML archive (doi:10.1016/j.fluid.2013.12.024).
± gives the expanded uncertainty stated by the source.

Experiments:
[1] = Molar enthalpy of transition or fusion; details: Crystal; DSC
[2] = Crystal; DTA

- Molar enthalpy of transition or fusion [1]: 8.38 ± 0.234 kcal/mol
- Normal melting temperature [2]: 315.67 ± 0.5 °C
SMILES: O=c1c(-c2ccc(O)cc2)coc2cc(O)ccc12 [daidzein]
